One test relates to tumor cell lines. Particulars: broad range of tumor cell lines; Ravaud et al. 2005; cited from earlier work.
A further test has as its system U251 cells. As to the kind of experiment: In-vitro cell proliferation assay (SRB), U251 cells. The test is classed as cell-based. Particulars: Homo sapiens, U-251, 72 hours. As to the method:
After overnight incubation at 37° C. and 5% CO2, the compound titrations were performed in a separate dilution plate by serially diluting the compounds in DMSO to make a 1000× stock. The compounds were then further diluted to 10× final concentration in culture media, whereupon 20 μL of each dilution was added to the plated cells with controls (e.g. DMSO and blank) to make a final volume of 5 200 μL. The final DMSO concentration in each well was 0.1%. The plates were then incubated for 72 hours at 37° C. in a 5% CO2 incubator. The number of viable cells was then assessed using sulforhodamine B (SRB) assay. Cells were fixed at 4° C. for 1 hour with the addition of 50 μL 30% trichloroacetic acid (TCA) to make a final concentration of 6% 10 TCA. The plates were washed four times with H2O and allowed to dry for at least 1 hour, whereupon 100 μL of a 4% SRB in 1% acetic acid solution was added to each well and incubated at room temperature for at least 30 minutes. The plates were then washed three times with 1% acetic acid, dried, and treated with 100 μL of 10 mM Tris-Base solution. The plates were then read in a microplate reader at an absorbance of 570 nm. 15 Background was generated on a separate plate with media only. Method for Determining % Inhibition First, the signals from the background plate are averaged, then the background was subtracted from the test plates.

The subject of test [1] is A2780 cells. Kind of test: Xenograft studies: A2780 tumors s.c. in C.B-17-Igh-1b-Prkdc scid mice. The test is classed as in vivo. Particulars: female scid mice, p.o. BID for 5 or 10 days, dose selected from MTD study. The method, then: C.B-17-Igh-1b-Prkdc^scid mice (female) were injected s.c. with 5×10^6 A2780 cells (NCI) in the left flank. 10-12 days later when tumors reached 100-200 mm3 in size, mice were randomized into treatment groups of 8 mice per group including vehicle control and reference standard groups. The compounds were formulated in 60:30:10 PEG-400: D5W: Ethanol and administered p.o., at the dose volume of 10 ml/kg BID for a duration of 5 or 10 days. The dose used for efficacy was selected from the MTD (Maximum Tolerated Dose) study. Mice were weighed and tumors measured using vernier calipers every alternate day. Tumor volume was calculated according to the formula (length×width^2)/2. All animal work was approved by the Institutional Animal Care and Use Committee of Biological Resource Centre, Singapore.

A further test concerns HepG2 cells. Particulars: Hasmann et al. 2003; cited from earlier work.
Test [2] relates to murine renal cell carcinoma. The note with it: Drevs et al. 2003; cited from earlier work.
The test system of another test is mouse mammary carcinoma. The note with it: in vivo; cited from earlier work.
A further test has as its target T1, NAMPT (Homo sapiens, UniProt P43490).
T1 construct: His tag; host or cells: E. coli
Kind of test: Biochemical inhibition assay: NAMPT enzymatic reaction, NMN quantified by mass spectrometry. The note with it: NAMPT enzymatic reaction; read-out: Biochem IC50. The procedure, abridged: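 Inhibition of E. coli-expressed His-tagged human NAMPT, measured as NMN formation by mass spectrometry after a 30 min room-temperature reaction containing 1 μM NAM, 100 μM PRPP and 2.5 mM ATP.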

The test system of test [3] is A2780 cells. As to the kind of experiment: In-vitro cell proliferation assay (SRB), A2780 cells. The test is classed as cell-based. Particulars: Homo sapiens, A2780, 72 h, A2780 cells, 72 hours, SRB assay; read-out: A2780 IC50. The method in brief: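 Growth inhibition was derived from background-corrected SRB absorbance (570 nm), measured on cells fixed in 6% TCA after three days of compound treatment under 5% CO2 at 37° C.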

Consider nine compounds from patent publication US12336981B2, “Compounds and compositions for the inhibition of NAMPT” (Valo Health, Inc., priority 2010, dated 2025).

As usually defined, the IC50 is the concentration that gives 50% inhibition.

T1 sequence (P43490 whole entry): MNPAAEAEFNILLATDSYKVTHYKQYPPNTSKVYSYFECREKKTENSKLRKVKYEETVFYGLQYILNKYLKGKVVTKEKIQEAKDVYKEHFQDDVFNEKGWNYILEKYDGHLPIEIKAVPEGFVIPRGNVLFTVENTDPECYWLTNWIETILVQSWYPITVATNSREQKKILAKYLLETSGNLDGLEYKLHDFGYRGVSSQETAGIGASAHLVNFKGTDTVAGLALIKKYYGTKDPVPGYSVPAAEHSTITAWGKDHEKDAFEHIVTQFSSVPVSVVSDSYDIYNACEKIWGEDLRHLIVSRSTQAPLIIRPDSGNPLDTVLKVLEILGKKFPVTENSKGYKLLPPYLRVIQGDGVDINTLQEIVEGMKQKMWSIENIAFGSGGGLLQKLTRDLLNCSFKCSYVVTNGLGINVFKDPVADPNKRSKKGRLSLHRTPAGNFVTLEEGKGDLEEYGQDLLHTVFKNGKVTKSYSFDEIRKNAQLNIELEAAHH

Take `N#C/N=C(\NCCCCCCOc1ccc(Cl)cc1)Nc1ccncc1` [CHS-828]: the “Cell growth inhibition in tumor cell lines” value in the test with tumor cell lines is reported as “potently inhibit cell growth”.

`O=C(NCc1ccc(S(=O)(=O)c2ccccc2)cc1)c1cc2cnccc2[nH]1` [N-{[4-(benzenesulfonyl)phenyl]methyl}-1H-pyrrolo[3,2-c]pyridine-2-carboxamide] displayed an IC50 with U251 cells of 40 nM. In the test on A2780 cells [1], the “Effect on tumor in A2780 xenograft” value is recorded as “tumor regression”.

As to `O=C(/C=C/c1cccnc1)NCCCCC1CCN(C(=O)c2ccccc2)CC1` [FK866, (E)-N-[4-(1-benzoylpiperidin-4-yl)butyl]-3-(pyridine-3-yl)-acrylamide], in the test with HepG2 cells, the “Apoptosis in HepG2 cells” value is reported as “induces apoptosis”. Also, in test [2], the “Activity in murine renal cell carcinoma model” value is “anti-tumor, antimetastatic, and anti-angiogenic activities”. Moreover, in the test with mouse mammary carcinoma, the “Tumor growth in mouse mammary carcinoma model” value is given as “delay in tumor growth”.

Turning to `O=C(NCc1ccc(S(=O)(=O)c2ccccc2OC(F)(F)F)cc1)c1cc2cnccc2[nH]1` [N-[(4-{[2-(trifluoromethoxy)benzene]sulfonyl}phenyl)methyl]-1H-pyrrolo[3,2-c]pyridine-2-carboxamide], the IC50 was 16 nM on NAMPT and 3 nM in the test on A2780 cells [3]. In addition, the “Effect on tumor in A2780 xenograft” value in the test with A2780 cells [1] is recorded as “tumor regression”.

As to `O=C(NCc1ccc(S(=O)(=O)c2ccc(F)cc2)cc1)c1ccc2nccn2c1` [N-({4-[(4-fluorobenzene)sulfonyl]phenyl}methyl)imidazo[1,2-a]pyridine-6-carboxamide], the 50% inhibitory concentration (IC50) at NAMPT is 23 nM; in the test with A2780 cells [3], 11 nM. Besides, the “Effect on tumor in A2780 xenograft” value in the test on A2780 cells [1] is on record as “tumor regression”.

Regarding `COc1cc(-n2cccn2)ccc1S(=O)(=O)c1ccc(CNC(=O)c2cc3cnccc3[nH]2)cc1` [N-[(4-{[2-methoxy-4-(1H-pyrazol-1-yl)benzene]sulfonyl}phenyl)methyl]-1H-pyrrolo[3,2-c]pyridine-2-carboxamide], the values for the IC50 on NAMPT and with A2780 cells [3] were 16 nM and 2 nM, respectively. Further, in the test with A2780 cells [1], the “Effect on tumor in A2780 xenograft” value was “delayed tumor growth”.

With `O=C(NCc1ccc(S(=O)(=O)c2ccccc2)cc1)c1ccc2nccn2c1` [N-{[4-(benzenesulfonyl)phenyl]methyl}imidazo[1,2-a]pyridine-6-carboxamide], the IC50 is 21 nM at NAMPT and 11 nM with A2780 cells [3]. Further, the “Effect on tumor in A2780 xenograft” value with A2780 cells [1] is “tumor regression”.

Take `O=C(NCc1ccc(S(=O)(=O)c2cccnc2)cc1)c1cc2cnccc2[nH]1` [N-{[4-(pyridine-3-sulfonyl)phenyl]methyl}-1H-pyrrolo[3,2-c]pyridine-2-carboxamide]: the IC50 is 21 nM on NAMPT and 48 nM in the test with A2780 cells [3]. In the test with A2780 cells [1], the “Effect on tumor in A2780 xenograft” value is on record as “delayed tumor growth”.

As for `O=C(NCc1ccc(S(=O)(=O)c2cccc(Cl)c2)cc1)c1cc2cnccc2[nH]1` [N-({4-[(3-chlorobenzene)sulfonyl]phenyl}methyl)-1H-pyrrolo[3,2-c]pyridine-2-carboxamide], the results for the IC50 at NAMPT and in the test with A2780 cells [3] were 5 nM and 3 nM, respectively. Moreover, the “Effect on tumor in A2780 xenograft” value with A2780 cells [1] is listed as “tumor regression”.
